Source: ChEMBL document CHEMBL1201862, “PubChem BioAssay data set” (2004)
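Results reflect a 48-hour exposure of cells in 96-well plates to compound at five concentrations. GI50 is the concentration that inhibits growth by half.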 Active and inactive are the calls of the source. Rule as the data show it: active = GI50 up to about 1.1 µM and inactive = higher.

Columns and labels:
Test in all cases: NCI tumour cell line growth inhibition, 48 h
[1] = tested on: RPMI-8226
[2] = tested on: 786-0
[3] = tested on: UACC-257
[4] = tested on: IGROV-1
[5] = tested on: SF-539
[6] = tested on: SK-MEL-2
[7] = tested on: HT-29
[8] = tested on: SN12C
[9] = tested on: KM12
[10] = tested on: MDA-MB-231
[11] = tested on: TK-10
[12] = tested on: OVCAR-5
[13] = tested on: A549
[14] = tested on: UO-31
[15] = tested on: OVCAR-8
[16] = tested on: NCI/ADR-RES
[17] = tested on: HOP-62
[18] = tested on: M14
[19] = tested on: HCC 2998
[20] = tested on: SR
[21] = tested on: BT-549
[22] = tested on: OVCAR-3
[23] = tested on: HCT-116
[24] = tested on: MDA-N
[25] = tested on: U-251
[26] = tested on: SK-MEL-28
[27] = tested on: NCI-H23
[28] = tested on: HCT-15
[29] = tested on: CCRF-CEM
[30] = tested on: ACHN
[31] = tested on: HOP-92
[32] = tested on: T47D
[33] = tested on: Malme-3M
[34] = tested on: NCI-H522
[35] = tested on: SK-MEL-5
[36] = tested on: SNB-75
[37] = tested on: UACC-62
[38] = tested on: SF-295
[39] = tested on: LOX IMVI
[40] = tested on: HL-60
[41] = tested on: MDA-MB-435
[42] = tested on: EKVX
[43] = tested on: CAKI-1
[44] = tested on: MCF7
[45] = tested on: A498
[46] = tested on: OVCAR-4
[47] = tested on: MOLT-4
[48] = tested on: COLO 205
[49] = tested on: PC-3
[50] = tested on: SK-OV-3
[51] = tested on: K562
[52] = tested on: SNB-19
[53] = tested on: NCI-H226
[54] = tested on: SW-620

## Cc1[nH]c2ncn(N)c(=N)c2c1Cc1ccccc1
[1]
  GI50: > 100 µM (inactive)
[2]
  GI50: > 100 µM (inactive)
[3]
  GI50: > 100 µM (inactive)
[4]
  GI50: 80.4 µM (inactive)
[5]
  GI50: 58.2 µM (inactive)
[6]
  GI50: > 100 µM (inactive)
[7]
  GI50: 67.9 µM (inactive)
[8]
  GI50: > 100 µM (inactive)
[9]
  GI50: > 100 µM (inactive)
[10]
  GI50: > 100 µM (inactive)
[11]
  GI50: > 100 µM (inactive)
[12]
  GI50: > 100 µM (inactive)
[13]
  GI50: 58.3 µM (inactive)
[14]
  GI50: 26.1 µM (inactive)
[15]
  GI50: > 100 µM (inactive)
[16]
  GI50: 82 µM (inactive)
[17]
  GI50: 47.2 µM (inactive)
[18]
  GI50: > 100 µM (inactive)
[19]
  GI50: > 100 µM (inactive)
[20]
  GI50: > 100 µM (inactive)
[21]
  GI50: > 100 µM (inactive)
[22]
  GI50: > 100 µM (inactive)
[23]
  GI50: > 100 µM (inactive)
[24]
  GI50: 35.3 µM (inactive)
[25]
  GI50: > 100 µM (inactive)
[26]
  GI50: > 100 µM (inactive)
[27]
  GI50: > 100 µM (inactive)
[28]
  GI50: > 100 µM
[29]
  GI50: > 100 µM (inactive)
[30]
  GI50: > 100 µM (inactive)
[31]
  GI50: 6.7 µM (inactive)
[32]
  GI50: 4.35 µM (inactive)
[33]
  GI50: 6.76 µM (inactive)
[34]
  GI50: 49.2 µM (inactive)
[35]
  GI50: 19.1 µM (inactive)
[36]
  GI50: 42.7 µM (inactive)
[37]
  GI50: 58.1 µM (inactive)
[38]
  GI50: > 100 µM (inactive)
[39]
  GI50: 67.1 µM (inactive)
[40]
  GI50: 17.8 µM (inactive)
[41]
  GI50: 34.6 µM (inactive)
[42]
  GI50: > 100 µM (inactive)
[43]
  GI50: > 100 µM (inactive)
[44]
  GI50: 33 µM (inactive)
[45]
  GI50: > 100 µM (inactive)
[46]
  GI50: > 100 µM (inactive)
[47]
  GI50: > 100 µM (inactive)
[48]
  GI50: > 100 µM (inactive)
[49]
  GI50: 30.6 µM (inactive)
[50]
  GI50: > 100 µM (inactive)
[51]
  GI50: > 100 µM (inactive)
[52]
  GI50: > 100 µM (inactive)
[53]
  GI50: > 100 µM (inactive)
[54]
  GI50: > 100 µM (inactive)
